Measurements taken from US10479795B2 (Incyte Corporation, priority 2016, dated 2019).
Where a name gives a salt, the structure may show the parent alone. Read-outs that look alike come from different tables or passages of the source.

Experiments:
[1] = system: Phosphorylated Ribosomal Protein S6 (RPS6); experiment: THP-1 RPS6 ELISA Assay; format: cell-based, Human; details: THP-1 cells, read-out: PI3Kγ_THP1_RPS6_ELISA IC50
Summary of the method: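 Serum-starved THP-1 cells were preincubated with a concentration range of compound for 2 h at 37 °C, then stimulated with 10 nM MCP-1 for 15 min. Phospho-RPS6 in lysates was quantified by ELISA at 450 nm. IC50 came from percent inhibition versus log inhibitor concentration.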

[2] = biological target: PI3Kγ (p110γ) Recombinant Human Protein (Homo sapiens (Human), UniProt P48736); experiment: PI3K-γ Scintillation Proximity Assay; format: biochemical; details: read-out: PI3Kγ IC50
PI3Kγ (p110γ) Recombinant Human Protein, sequence (P48736 whole entry): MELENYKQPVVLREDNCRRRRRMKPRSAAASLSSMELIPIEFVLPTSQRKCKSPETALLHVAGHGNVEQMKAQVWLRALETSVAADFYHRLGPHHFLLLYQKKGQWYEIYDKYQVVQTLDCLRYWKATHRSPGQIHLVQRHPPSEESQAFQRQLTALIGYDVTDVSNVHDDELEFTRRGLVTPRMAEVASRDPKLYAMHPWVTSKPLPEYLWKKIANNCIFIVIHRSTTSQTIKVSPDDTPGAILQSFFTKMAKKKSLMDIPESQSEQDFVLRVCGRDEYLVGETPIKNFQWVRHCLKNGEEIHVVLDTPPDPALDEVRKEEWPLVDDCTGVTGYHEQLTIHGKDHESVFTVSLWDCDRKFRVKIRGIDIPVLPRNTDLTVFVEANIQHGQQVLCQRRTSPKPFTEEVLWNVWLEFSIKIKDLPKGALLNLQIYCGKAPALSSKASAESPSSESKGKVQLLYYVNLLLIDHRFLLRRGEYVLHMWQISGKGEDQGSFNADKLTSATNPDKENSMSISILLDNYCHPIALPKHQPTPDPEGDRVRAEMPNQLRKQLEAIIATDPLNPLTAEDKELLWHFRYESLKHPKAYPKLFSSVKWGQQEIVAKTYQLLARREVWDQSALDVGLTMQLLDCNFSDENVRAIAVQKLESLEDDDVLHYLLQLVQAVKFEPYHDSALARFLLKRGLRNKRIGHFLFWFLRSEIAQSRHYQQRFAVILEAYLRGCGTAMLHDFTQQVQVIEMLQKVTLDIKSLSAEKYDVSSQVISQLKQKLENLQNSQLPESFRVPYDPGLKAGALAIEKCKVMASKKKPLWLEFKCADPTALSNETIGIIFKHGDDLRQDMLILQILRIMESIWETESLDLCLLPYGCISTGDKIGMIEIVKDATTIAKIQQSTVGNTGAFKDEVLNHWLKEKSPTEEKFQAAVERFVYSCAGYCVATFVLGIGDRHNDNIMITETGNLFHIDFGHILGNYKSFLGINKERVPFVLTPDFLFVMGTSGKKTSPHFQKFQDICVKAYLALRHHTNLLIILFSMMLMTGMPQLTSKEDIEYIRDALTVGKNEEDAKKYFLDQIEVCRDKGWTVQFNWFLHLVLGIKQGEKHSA
Summary of the method: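 Recombinant human p110γ assayed at room temperature in 20 mM MOPS pH 6.7, 10 mM MgCl2, 5 mM DTT, 0.03% CHAPS, 2% DMSO, with 20 μM PIP2 and 2 μM ATP plus [γ-33P]ATP. Product captured on WGA SPA beads overnight and counted; IC50 fitted from % of solvent-control activity versus log inhibitor concentration.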

[3] = biological target: PI3Kδ (p110δ/p85α) Recombinant Human Protein (Homo sapiens (Human), UniProt O00329); experiment: PI3Kδ Scintillation Proximity Assay; format: biochemical
PI3Kδ (p110δ/p85α) Recombinant Human Protein, sequence (O00329 whole entry): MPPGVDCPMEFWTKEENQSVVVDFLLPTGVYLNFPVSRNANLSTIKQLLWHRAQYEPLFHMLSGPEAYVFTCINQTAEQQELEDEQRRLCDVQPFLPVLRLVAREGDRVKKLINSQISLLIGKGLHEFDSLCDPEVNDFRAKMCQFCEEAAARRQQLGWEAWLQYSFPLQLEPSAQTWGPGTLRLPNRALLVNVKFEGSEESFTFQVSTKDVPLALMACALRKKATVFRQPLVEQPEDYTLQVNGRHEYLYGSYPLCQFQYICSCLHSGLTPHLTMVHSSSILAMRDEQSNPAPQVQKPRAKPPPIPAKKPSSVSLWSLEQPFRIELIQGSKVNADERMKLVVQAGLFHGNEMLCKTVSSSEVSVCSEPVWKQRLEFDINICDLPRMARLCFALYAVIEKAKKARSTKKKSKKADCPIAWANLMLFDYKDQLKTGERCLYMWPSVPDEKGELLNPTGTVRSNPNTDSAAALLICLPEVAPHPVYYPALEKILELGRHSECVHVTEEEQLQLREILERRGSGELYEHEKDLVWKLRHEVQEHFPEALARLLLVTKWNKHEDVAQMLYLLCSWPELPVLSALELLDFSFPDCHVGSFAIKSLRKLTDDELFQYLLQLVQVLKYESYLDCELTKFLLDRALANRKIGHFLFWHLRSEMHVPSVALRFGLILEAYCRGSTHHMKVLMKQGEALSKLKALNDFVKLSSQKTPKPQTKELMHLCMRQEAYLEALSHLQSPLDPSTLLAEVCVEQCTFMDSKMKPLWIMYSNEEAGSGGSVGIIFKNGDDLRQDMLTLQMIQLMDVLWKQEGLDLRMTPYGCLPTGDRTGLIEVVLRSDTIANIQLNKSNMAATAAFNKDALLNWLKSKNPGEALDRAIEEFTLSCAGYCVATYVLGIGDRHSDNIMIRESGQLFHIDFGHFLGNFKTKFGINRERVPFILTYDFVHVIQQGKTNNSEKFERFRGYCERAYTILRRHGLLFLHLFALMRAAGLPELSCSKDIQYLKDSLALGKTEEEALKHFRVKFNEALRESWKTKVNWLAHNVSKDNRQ
PI3Kδ (p110δ/p85α) Recombinant Human Protein, sequence (P27986 whole entry partner): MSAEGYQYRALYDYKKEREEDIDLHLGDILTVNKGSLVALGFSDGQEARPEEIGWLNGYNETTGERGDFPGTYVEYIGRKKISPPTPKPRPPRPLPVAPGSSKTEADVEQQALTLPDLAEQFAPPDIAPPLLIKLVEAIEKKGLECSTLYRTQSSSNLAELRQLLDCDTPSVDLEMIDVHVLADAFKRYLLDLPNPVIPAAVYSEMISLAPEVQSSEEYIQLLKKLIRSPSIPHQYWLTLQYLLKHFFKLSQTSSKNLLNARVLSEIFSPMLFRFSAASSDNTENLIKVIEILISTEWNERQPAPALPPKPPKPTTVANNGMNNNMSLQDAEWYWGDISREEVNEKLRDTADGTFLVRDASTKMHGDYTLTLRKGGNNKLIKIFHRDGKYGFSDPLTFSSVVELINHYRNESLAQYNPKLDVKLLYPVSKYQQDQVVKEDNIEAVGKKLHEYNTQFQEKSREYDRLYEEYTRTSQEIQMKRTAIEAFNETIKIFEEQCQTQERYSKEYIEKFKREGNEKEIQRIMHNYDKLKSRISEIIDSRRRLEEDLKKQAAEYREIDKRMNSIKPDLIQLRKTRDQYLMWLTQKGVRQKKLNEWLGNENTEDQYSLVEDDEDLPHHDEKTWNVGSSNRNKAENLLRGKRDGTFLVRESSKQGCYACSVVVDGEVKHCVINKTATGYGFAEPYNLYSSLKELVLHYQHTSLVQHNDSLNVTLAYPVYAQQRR
Summary of the method: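 Recombinant human p110δ/p85α (3.4 nM) with 20 μM PIP2 and 2 μM ATP plus [γ-33P]ATP, in 20 mM MOPS pH 6.7, 10 mM MgCl2, 5 mM DTT, 0.03% CHAPS, 2% DMSO; 120 min at room temperature. Product captured on WGA SPA beads, scintillation counted; IC50 from percent-of-control curves.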

IC50 [1] | IC50 [2] | IC50 [3] | IC50 ([1]; Homo sapiens) | Compound
100 to 500 nM | < 100 nM | 500 to 2000 nM |  | Cc1ccc(S(=O)(=O)N[C@]2(C)CC[C@@H](O)CC2)cc1-c1cnc2c(N)ncnn12 [Example 127, 3-(4-aminoimidazo[2,1-f][1,2,4]triazin-7-yl)-N-(trans-4-hydroxy-1-methylcyclohexyl)-4-methylbenzenesulfonamide]
 | < 100 nM | < 100 nM | < 100 nM | Cc1ccc(S(=O)(=O)N2C[C@@H](C)C[C@@H](N)C2)cc1-c1cnc2c(N)nc(C(F)(F)F)cn12 [Example 306, 3-(5-(((3R,5S)-3-amino-5-methylpiperidin-1-yl)sulfonyl)-2-methylphenyl)-6-(trifluoromethyl)imidazo[1,2-a]pyrazin-8-amine]
 | < 100 nM | 500 to 2000 nM | 100 to 500 nM | Cc1ccc(S(=O)(=O)N2CCC[C@@H](N(C)C)C2)cc1-c1cnc2c(N)nc(C(F)(F)F)cn12 [Example 309, (R)-3-(5-((3-(dimethylamino)piperidin-1-yl)sulfonyl)-2-methylphenyl)-6-(trifluoromethyl)imidazo[1,2-a]pyrazin-8-amine]
 | < 100 nM | < 100 nM | > 1000 nM | COc1nccc(-c2cn3c(-c4cc(S(C)(=O)=O)ccc4C)cnc3c(N)n2)c1F [Example 483, 6-(3-Fluoro-2-methoxypyridin-4-yl)-3-(2-methyl-5-(methylsulfonyl)phenyl)imidazo[1,2-a]pyrazin-8-amine trifluoroacetate]
 | < 100 nM | 500 to 2000 nM | > 1000 nM | Cc1ccc(S(=O)(=O)NC23CC(c4nccn4C)(C2)C3)cc1-c1cnc2c(N)nc(C(F)(F)F)cn12 [Example 294, 3-(8-Amino-6-(trifluoromethyl)imidazo[1,2-a]pyrazin-3-yl)-4-methyl-N-(3-(1-methyl-1H-imidazol-2-yl)bicyclo[1.1.1]pentan-1-yl)benzenesulfonamide trifluoroacetate salt]
100 to 500 nM | < 100 nM | 100 to 500 nM |  | Cc1ccc(S(=O)(=O)NC23CCC(CC#N)(C2)C3)cc1-c1cnc2c(N)ncnn12 [Example 108, 3-(4-Aminoimidazo[1,2-f][1,2,4]triazin-7-yl)-N-(4-(cyanomethyl)bicyclo[2.1.1]hexan-1-yl)-4-methylbenzenesulfonamide trifluoroacetate salt]
 | < 100 nM | 100 to 500 nM | < 100 nM | Cc1ccc(S(=O)(=O)N[C@H]2CC[C@H](CF)OC2)cc1-c1cnc2c(N)ncnn12 [Example 467, 3-(4-Aminoimidazo[2,1-f][1,2,4]triazin-7-yl)-N-((3S,6R)-6-(fluoromethyl)tetrahydro-2H-pyran-3-yl)-4-methylbenzenesulfonamide]
 | 100 to 500 nM | 500 to 2000 nM | > 1000 nM | Cc1ccc(S(=O)(=O)N[C@H]2CC[C@H](O)CC2)cc1-c1cnc2c(N)cccn12 [Example 1, 3-(8-Aminoimidazo[1,2-a]pyridin-3-yl)-N-(trans-4-hydroxycyclohexyl)-4-methylbenzenesulfonamide trifluoroacetate]
 | < 100 nM | < 100 nM | 100 to 500 nM | N#CC12CCC(NS(=O)(=O)c3cc(-c4cnc5c(N)nc(C(F)(F)F)cn45)ccc3Cl)(C1)C2 [Example 392, 5-(8-Amino-6-(trifluoromethyl)imidazo[1,2-a]pyrazin-3-yl)-2-chloro-N-(4-cyanobicyclo[2.1.1]hexan-1-yl)benzenesulfonamide trifluoroacetate salt]
 | < 100 nM | 100 to 500 nM | 100 to 500 nM | Cc1ccc(S(=O)(=O)NCC2CC(F)(F)C2)cc1-c1cnc2c(N)nc(C(=O)NC3CCC3)cn12 [Example 446, 8-amino-N-cyclobutyl-3-(5-(N-((3,3-difluorocyclobutyl)methyl)sulfamoyl)-2-methylphenyl)imidazo[1,2-a]pyrazine-6-carboxamide trifluoroacetate salt]
100 to 500 nM | < 100 nM | 100 to 500 nM |  | Cc1ccc(S(=O)(=O)N2CC(O)(C3CC3)C2)cc1-c1cnc2c(N)nc(C(F)(F)F)nn12 [Example 342, 1-((3-(4-amino-2-(trifluoromethyl)imidazo[2,1-1,2,4]triazin-7-yl)-4-methylphenyl)sulfonyl)-3-cyclopropylazetidin-3-ol TFA]
 | < 100 nM | < 100 nM | 100 to 500 nM | Cc1ccc(S(=O)(=O)NC23CCC(F)(CC2)CC3)cc1-c1cnc2c(N)ncnn12 [Example 188, 3-(4-aminoimidazo[2,1-f][1,2,4]triazin-7-yl)-N-(4-fluorobicyclo[2.2.2]octan-1-yl)-4-methylbenzenesulfonamide]
 | < 100 nM | < 100 nM | 100 to 500 nM | Cc1ccc(S(=O)(=O)N2CC3(CCN(C)C3=O)C2)cc1-c1cnc2c(N)nc(C(F)(F)F)nn12 [Example 348, 2-((3-(4-amino-2-(trifluoromethyl)imidazo[2,1-f][1,2,4]triazin-7-yl)-4-methylphenyl)sulfonyl)-6-methyl-2,6-diazaspiro[3.4]octan-5-one]
> 1000 nM | < 100 nM | 100 to 500 nM |  | Cc1nc(N)c2ncc(-c3ccc(F)c(S(=O)(=O)NC45CC(C#N)(C4)C5)c3)n2n1 [Example 388, 5-(4-Amino-2-methylimidazo[1,2-f][1,2,4]triazin-7-yl)-N-(3-cyanobicyclo[1.1.1]pentan-1-yl)-2-fluorobenzenesulfonamide trifluoroacetate salt]
100 to 500 nM | < 100 nM | 100 to 500 nM |  | Cc1ccc(S(=O)(=O)NC23CC(C(F)F)(C2)C3)cc1-c1cnc2c(N)nc(C(F)(F)F)nn12 [Example 339, 3-(4-Amino-2-(trifluoromethyl)imidazo[1,2-f][1,2,4]triazin-7-yl)-N-(3-(difluoromethyl)bicyclo[1.1.1]pentan-1-yl)-4-methylbenzenesulfonamide trifluoroacetate salt]
 | < 100 nM | 100 to 500 nM | > 1000 nM | Cc1ccc(S(=O)(=O)N(CCC#N)C2CC2)cc1-c1cnc2c(N)nc(C(F)(F)F)nn12 [Example 345, 3-(4-amino-2-(trifluoromethyl)imidazo[2,1-f][1,2,4]triazin-7-yl)-N-(2-cyanoethyl)-N-cyclopropyl-4-methylbenzenesulfonamide]
 | < 100 nM | < 100 nM | < 100 nM | Cc1ccc(S(=O)(=O)N[C@H]2CC[C@H](O)CC2)cc1-c1cnc2c(N)nc(C(C)C)cn12 [Example 504, 3-(8-Amino-6-isopropylimidazo[1,2-a]pyrazin-3-yl)-N-(trans-4-hydroxycyclohexyl)-4-methylbenzenesulfonamide]
 | < 100 nM | 100 to 500 nM | 100 to 500 nM | [2H]C([2H])([2H])c1ccc(S(=O)(=O)NC23COC(C)(C2)C3)cc1-c1cnc2c(N)nc(C)nn12 [Example 426, 3-(4-Amino-2-methylimidazo[1,2-f][1,2,4]triazin-7-yl)-4-trideuteromethyl-N-(1-methyl-2-oxabicyclo[2.1.1]hexan-4-yl)benzenesulfonamide trifluoroacetate salt]
 | < 100 nM | < 100 nM | > 1000 nM | CNC(=O)c1ccc(F)c(-c2cn3c(-c4cc(S(=O)(=O)N[C@H]5CC[C@H](O)CC5)ccc4C)cnc3c(N)n2)c1 [Example 31, 3-[8-Amino-3-(5-{[(trans-4-hydroxycyclohexyl)amino]sulfonyl}-2-methylphenyl)imidazo[1,2-a]pyrazin-6-yl]-4-fluoro-N-methylbenzamide]

Compound | IC50 [1] | IC50 [2] | IC50 [3] | IC50 ([1]; Homo sapiens)
Cc1ccc(S(=O)(=O)NC23CC(c4nccs4)(C2)C3)cc1-c1cnc2c(N)ncnn12 [Example 114, 3-(4-Aminoimidazo[1,2-f][1,2,4]triazin-7-yl)-4-methyl-N-(3-(thiazol-2-yl)bicyclo[1.1.1]pentan-1-yl)benzenesulfonamide trifluoroacetate salt] | 100 to 500 nM | < 100 nM | 100 to 500 nM | 
Cc1ccc(S(=O)(=O)NC23CC(C(=O)N(C)C)(C2)C3)cc1-c1cnc2c(N)ncnn12 [Example 96, 3-(3-(4-Aminoimidazo[1,2-f][1,2,4]triazin-7-yl)-4-methylphenylsulfonamido)-N,N-dimethylbicyclo[1.1.1]pentane-1-carboxamide trifluoroacetate salt] | > 1000 nM | < 100 nM | 100 to 500 nM | 
Cc1cn2c(-c3ccc(Cl)c(S(=O)(=O)N[C@H]4CC[C@](C)(O)CC4)c3)cnc2c(N)n1 [Example 385, 5-(8-amino-6-methylimidazo[1,2-a]pyrazin-3-yl)-2-chloro-N-((1r,4r)-4-hydroxy-4-methylcyclohexyl)benzenesulfonamide] | 100 to 500 nM | < 100 nM | < 100 nM | 
C[C@]1(O)CC[C@H](NS(=O)(=O)c2cc(-c3cnc4c(N)nc(-c5ccc(CO)cc5F)cn34)ccc2F)CC1 [Example 423, 5-(8-amino-6-(2-fluoro-4-(hydroxymethyl)phenyl)imidazo[1,2-a]pyrazin-3-yl)-2-fluoro-N-((1r,4r)-4-hydroxy-4-methylcyclohexyl)benzenesulfonamide] | < 100 nM | < 100 nM | < 100 nM | 
